Laboratory results as given in patent US20220177484A1, “MACROCYCLES WITH ANTIOXIDANT AND NEUROPROTECTIVE ACTIVITIES” (INSTITUTO BIOMAR, S.A, priority 2019, published 2022).

What was measured:
[1] = tested on: SH-SY5Y human neuroblastoma cells expressing EGFP-alphasynuclein-A53T; assay: Mutated α-synuclein aggregation in transfected SH-SY5Y cells; type: cell-based; conditions: 5 μM, 24 h
Description: Mutated α-synuclein protein aggregation are indicated by white arrows, GFP α-synuclein protein (green) and β-tubulin (red). The images were acquired using the Operetta CLS automated confocal microscope, using the 40× water immersion objective.
(§1) SH-SY5Y human neuroblastoma cells were maintained in Dulbecco's modified Eagle's medium (DMEM) supplemented with 10% fetal bovine serum (FBS), 2 mM L-glutamine and 100 U/mL penicillin-0.1 mg/mL streptomycin at 37° C. and 5% CO2.
(§2) To study the effect of compounds on mutated huntingtin and synuclein that accumulates in cells, SH-SY5Y were transfected with a constitutively active mutated-huntingtin expression vector pEGFP-Q74 (encoding EGFP protein fused to a fragment of huntingtin corresponding to the exon 1 with 74 CAG repeats; c.54GCA[74]; Addgene; #40262) and EGFP-alphasynuclein-A53T (Addgene; #40823).
(§3) For transfection assays, cells were seeded (30×10^3 cells/cm^2) on 96-multiwell plates (coated with poliornitine-fibronectine). Cells were transfected with 0.3 μg pEGFP-Q74 plasmid using LTX with Plus Reagent according to the manufacturer's instructions (Thermo Fisher). After 24-h, the medium was changed with a new one, and cells were treated with increasing amounts of GKK1032C and CL0670 (0.1 μM, 1 μM and 5 μM) or DMSO (control cells) for 24 h at 37° C. […]

[2] = tested on: SH-SY5Y human neuroblastoma cells expressing mutated huntingtin (pEGFP-Q74); assay: Mutated huntingtin aggregation in transfected SH-SY5Y cells; type: cell-based; conditions: 5 μM, 24 h
Description: Mutated huntingtin proteins aggregation are indicated by white arrows, GFP huntingtin protein (green) and β-tubulin (red). The images were acquired using the Operetta CLS automated confocal microscope, using the 40× water immersion objective.
as §1, §2, §3

[3] = tested on: rat cortical primary neurons; assay: H2O2 formation in cortical primary neurons treated with L-BSO and rotenone (Amplex Red); type: cell-based
Description: The data are presented as the mean values±[…] of the mean (SEM) from n=6 (i.e., 6 independent wells measured independently).
After this period, cells were again washed and determined the rate of H2O2 production during the next 2 h.

[4] = tested on: rat cortical primary neurons; assay: Protein concentration in neurons incubated with L-BSO and rotenone (neuronal death); type: cell-based; conditions: L-BSO and rotenone 3 or 6 h with compound at 0.1, 1 or 5 μg/ml; effect as from 0.1 μg/ml (6 h) (FIG. 4)
[5] = Pharmacokinetics in plasma and brain after intraperitoneal administration; type: in vivo, female C57BL/6 mice; conditions: 150 mg/Kg intraperitoneal
Description: FIG. 10 represents the concentration of Compound I in plasma and brain of female C57BL/6 mice collected at t=0 min, 5 min, 15 min, 30 min, 1 hour, 4 hours, 10 hours, 24 hours and 48 hours.
The Maximum Tolerated Dose (MTD) and Pharmacokinetics (PK) of compound I were determined after intraperitoneal administration to female C57BL/6 (˜25 g) 9 weeks old mice. The injection comprised a 150 mg/Kg dose of compound I in Creomophor-EtOH-H2O (10:5:85). The concentrations of GKK1032C in plasma and brain were determined at different times per duplicate (pre-dose, 5 min, 15 min, 30 min, 1 h, 4 h, 10 h, 24 h and 48 h) using a previously validated analytical method. […] The highest concentration in the brain is 850 ng/mL at 4 hours after injection and progressively declined until reaching the control levels at 24 hours post-administration.

[6] = tested on: C57BL6/J male mice; assay: Rotarod test under normal conditions; type: in vivo; conditions: once-daily 150 mg/kg intraperitoneal for 3 days, normal mice (FIG. 11)
Description: FIG. 11 represents the results from the rotarod test to 8 weeks-old C57BL6/J male mice separated in two groups: Control (mice injected with vehicle) and Compound I (mice injected with a once-daily dose of 150 mg/kg of Compound I).
(§4) Experiments were conducted to evaluate if the intraperitoneal administration of Compound I to mice would have any effect in the animal's motor coordination, fear/anxiety and short-term memory behaviour. The motivation for this experiment is to determine if, under normal conditions, the injection of compound I would affect the behaviour of 8 weeks-old C57BL6/J male mice, in vivo. Mice were separated in group I (vehicle injection only) and group II (compound I injection). The mice were injected with a once-daily dose of 150 mg/kg for 3 days. The tests consisted in the rotarod performance test (at day 1, 2, 3 and 4), the open field test (at day 2 and 3) and the novel object recognition test (at day 4 only).

[7] = tested on: C57BL6/J male mice; assay: Novel Object Recognition test under normal conditions; type: in vivo; conditions: once-daily 150 mg/kg intraperitoneal for 3 days, test at day 4
Description: as §4

Row | SMILES | mutated synuclein and number of aggregates [1] | mutated huntingtin and number of aggregates [2] | rate of H2O2 formation by the neurons ([3]; L-BSO + rotenone 6 h, washed, then compound added at 1 and 5 μg/ml, H2O2 release recorded 2 h (FIG. 1)) | rate of H2O2 formation ([3]; compound 1 μg/ml together with L-BSO and rotenone for 6 h, washed, recorded 2 h (FIG. 2)) | H2O2 formation in untreated neurons ([3]; pre-treatment 5 μg/ml for 72 h, no L-BSO/rotenone (FIG. 3)) | L-BSO+rotenone-induced H2O2 formation ([3]; pre-treatment 5 μg/ml for 72 h, washed, then L-BSO and rotenone 6 h, recorded 2 h (FIG. 3)) | decrease in protein concentration remaining in the wells (neuronal death) [4] | highest concentration in the plasma ([5]; Creomophor-EtOH-H2O (10:5:85), mice (FIG. 10)) | crossing of the blood-brain barrier ([5]; mice) | duration of high levels in the brain ([5]; mice) | highest concentration in the brain ([5]; mice) | time at which brain concentration reaches the control levels post-administration ([5]; mice) | time of highest concentration in the brain after injection ([5]; mice) | time of highest concentration in the plasma after injection ([5]; mice) | motor coordination (rotarod) [6] | short-term memory (Novel Object Recognition) [7]
1 | C=CC1(C)C=C(C)C2C3C(Oc4ccc(cc4)CC4C(=O)NC(O)C4C(=O)C31)C1C(C)CC(C)CC21C (centres unmarked) [CL0670] | significantly decreased | significantly decreased | – | – | – | – | – | – | – | – | – | – | – | – | – | –
2 | C=CC1(C)C=C(C)C2C3C(Oc4ccc(cc4)CC4(O)NC(=O)C5(OC45)C(=O)C31)C1C(C)CC(C)CC21C (centres unmarked) [Compound I] | significantly decreased | – | dose-dependently decreased | significantly impaired | prevented | very significantly prevented | dose-dependently prevented such decrease | 30000 ng/mL | successfully crosses the blood-brain barrier | about 18 hours | 850 ng/mL | 24 h | 4 h | 4 h | no effect | did not alter
